Laboratory results as given in ChEMBL document CHEMBL5137082, “Discovery of a Novel Vascular Disrupting Agent Inhibiting Tubulin Polymerization and HDACs with Potent Antitumor Effects” (J Med Chem, 2022).
Calls of active or inactive are those of the source. The rule behind the calls is not given here.

Experiments:
HCT-116 = assay: Antiproliferative activity against human HCT-116 cells assessed as inhibition of cell growth measured after 72 hrs by MTT assay; assay type: functional, cell-based; settings: HCT-116, 72 h
MDA-MB-231 = assay: Antiproliferative activity against human MDA-MB-231 cells assessed as inhibition of cell growth measured after 72 hrs by MTT assay; assay type: functional, cell-based; settings: MDA-MB-231, 72 h
MCF7 = assay: Antiproliferative activity against human MCF7 cells assessed as inhibition of cell growth measured after 72 hrs by MTT assay; assay type: functional, cell-based; settings: MCF7, 72 h
[1] = Antiproliferative activity against human HFL1 cells assessed as inhibition of cell growth measured after 72 hrs by MTT assay; assay type: toxicity, cell-based
Tubulin = assay: Inhibition of tubulin polymerization (unknown origin) preincubated for 15 mins followed by PEG and GTP addition measured after 30 mins by spectrophotometric method; assay type: protein-complex assay, Homo sapiens
HepG2 [2] = assay: Induction of cell cycle arrest in human HepG2 cells assessed as accumulation G2 phase at 7.5 nM incubated for 48 hrs by propidium iodide staining based flow cytometry analysis (reference value: 23.55 +/- 0.29%); assay type: functional
HepG2 [3] = assay: Induction of cell cycle arrest in human HepG2 cells assessed as accumulation S phase at 15 nM incubated for 48 hrs by propidium iodide staining based flow cytometry analysis (reference value: 17.14 +/- 0.34%); assay type: functional
HepG2 [4] = assay: Induction of G2/M phase cell cycle arrest in human HepG2 cells assessed as decrease in Cdc2 protein expression at 7.5 to 30 nM measured after 24 hrs by western blot analysis; assay type: functional, cell-based; settings: dose 7.5-30 nM
HepG2 [5] = assay: Induction of morphological changes in human HepG2 cells assessed as nuclear fragmentation at 7.5 to 30 nM after 48 hrs by Hoechst 33258 staining based fluorescence microscopic analysis; assay type: functional, cell-based; settings: dose 7.5-30 nM
HepG2 [6] = assay: Induction of morphological changes in human HepG2 cells assessed as chromatin aggregation at 7.5 to 30 nM after 48 hrs by Hoechst 33258 staining based fluorescence microscopic analysis; assay type: functional, cell-based; settings: dose 7.5-30 nM
HepG2 [7] = assay: Induction of apoptosis in human HepG2 cells assessed as necrotic cells at 7.5 nM incubated for 48 hrs by Annexin-V/PI-staining based flow cytometry (reference value: 1.43 +/- 0.26%); assay type: functional
HepG2 [8] = assay: Induction of apoptosis in human HepG2 cells assessed as early apoptotic cells at 7.5 nM incubated for 48 hrs by Annexin-V/PI-staining based flow cytometry (reference value: 4.61 +/- 0.46%); assay type: functional
HepG2 [9] = assay: Induction of apoptosis in human HepG2 cells assessed as viable cells at 7.5 nM incubated for 48 hrs by Annexin-V/PI-staining based flow cytometry (reference value: 91.44 +/- 0.74%); assay type: functional; settings: read-out: Activity
HepG2 [10] = assay: Induction of apoptosis in human HepG2 cells assessed as early apoptotic cells at 15 nM incubated for 48 hrs by Annexin-V/PI-staining based flow cytometry (reference value: 4.61 +/- 0.46%); assay type: functional
HepG2 [11] = assay: Induction of apoptosis in human HepG2 cells assessed as viable cells at 15 nM incubated for 48 hrs by Annexin-V/PI-staining based flow cytometry (reference value: 91.44 +/- 0.74%); assay type: functional; settings: read-out: Activity
HepG2 [12] = assay: Induction of apoptosis in human HepG2 cells assessed as late apoptotic cells at 30 nM incubated for 48 hrs by Annexin-V/PI-staining based flow cytometry (reference value: 2.53 +/- 0.34%); assay type: functional
HepG2 [13] = assay: Induction of apoptosis in human HepG2 cells assessed as upregulation of Bax protein expression measured after 24 hrs by Western blot analysis; assay type: functional, cell-based; settings: dose 7.5-30 nM, DDE = dose-dependent effect
HepG2 [14] = assay: Induction of apoptosis in human HepG2 cells assessed as upregulation of Bad protein expression measured after 24 hrs by Western blot analysis; assay type: functional, cell-based; settings: dose 7.5-30 nM, DDE = dose-dependent effect
PC-3 [15] = assay: Induction of apoptosis in human PC-3 cells assessed as mitochondrial membrane potential loss by measuring increase in green fluorescence at 7.5 nM incubated for 48 hrs by JC1 staining based flow cytometry analysis (reference value: 6.50 +/- 0.17%); assay type: functional
PC-3 [16] = assay: Induction of apoptosis in human PC-3 cells assessed as mitochondrial membrane potential loss by measuring decrease in red fluorescence at 15 nM incubated for 48 hrs by JC1 staining based flow cytometry analysis (reference value: 93.48 +/- 0.15%); assay type: functional; design: scale not given: the % may be the effect or the level left
HUVEC = assay: Antimigratory activity against HUVEC cells assessed as suppression of migration measured after 24 hrs by Wound healing assay; assay type: functional, cell-based; settings: Homo sapiens, dose 7.5-30 nM, DDE = dose-dependent effect
[17] = Antiproliferative activity against HUVEC cells assessed as inhibition of cell growth measured after 24 hrs by MTT assay; assay type: toxicity, cell-based; settings: human
[18] = Metabolic stability in mouse plasma assessed as compound remaining at 40 uM measured after 2 hrs by LC-MS/MS analysis (reference value: 100%); assay type: ADME, cell-free
[19] = Metabolic stability in mouse liver microsomes assessed as intrinsic clearance at 1 uM in presence of NADPH measured per gram protein up to 60 mins by LC-MS/MS analysis; assay type: ADME, Microsome; settings: 1 h
Mus musculus [20] = assay: In vivo inhibition of HDAC in ICR mouse allografted with mouse H22 cells assessed as upregulation of acetyl-histone H3 expression at 20 mg/kg, iv qd administered for 21 days measured after 24 hrs by Western blot analysis; assay type: functional, organism-based; settings: time 21.0 day
Mus musculus [21] = assay: In vivo inhibition of HDAC in ICR mouse allografted with mouse H22 cells assessed as upregulation of acetyl-alpha tubulin expression at 20 mg/kg, iv qd administered for 21 days measured after 24 hrs by Western blot analysis; assay type: functional, organism-based; settings: time 21.0 day
H22 [22] = assay: Antivascular activity against mouse H22 cells allografted in ICR mouse assessed as inhibition of blood vessel formation at 20 mg/kg, iv administered qd measured after 21 days by immunohistochemistry analysis; assay type: functional, organism-based; settings: time 21.0 day
H22 [23] = assay: Antitumor activity against mouse H22 cells allografted in ICR mouse assessed as inhibition of tumor growth at 20 mg/kg, iv administered qd for 21 days measured after 12 days; assay type: functional, organism-based; settings: time 21.0 day
[24] = Cardiotoxicity in ICR mouse allografted with mouse H22 cells assessed as effect on QRS complex at 20 mg/kg, iv administered qd measured after 21 days by ECG analysis; assay type: toxicity, organism-based; settings: in vivo, 504 h, time 21 day
[25] = Toxicity in ICR mouse allografted with mouse H22 cells assessed as pathological changes in lung at 20 mg/kg, iv administered qd measured after 21 days by H and E staining based analysis; assay type: organism-based; settings: in vivo, 504 h, time 21 day
[26] = Toxicity in ICR mouse allografted with mouse H22 cells assessed as pathological changes in kidney at 20 mg/kg, iv administered qd measured after 21 days by H and E staining based analysis; assay type: organism-based; settings: in vivo, 504 h, time 21 day
[27] = Induction of apoptosis in ICR mouse cardiac tissue at 20 mg/kg, iv administered qd measured after 21 days by TUNEL assay; assay type: toxicity, organism-based; settings: in vivo, 504 h, time 21 day
[28] = Toxicity in ICR mouse allografted with mouse H22 cells assessed as diastolic blood pressure at 20 mg/kg, iv administered qd measured after 21 days; assay type: organism-based; settings: in vivo, 504 h, time 21 day
[29] = Cardiotoxicity in ICR mouse allografted with mouse H22 cells assessed as effect on T wave at 20 mg/kg, iv administered qd measured after 21 days by ECG analysis; assay type: toxicity, organism-based; settings: in vivo, 504 h, time 21 day

In the case of COc1ccc(CNC(=O)c2cc(F)ccc2N2CCOCC2)cc1/C=C/C(=O)NO, the IC50 (HCT-116) is reported as 28 nM, the IC50 (MDA-MB-231) is reported as 30 nM and the IC50 (MCF7) is reported as 27 nM. For the same compound, the IC50 at 72 h [1] was 13 nM, the IC50 (Tubulin) was 4060 nM and the Activity (HepG2 [2]) was 24.42%. The Activity (HepG2 [3]) was 23.06%, the Activity (HepG2 [4]) was “Active” and the Activity (HepG2 [5]) was “Active”. For the same compound, the Activity (HepG2 [6]) was “Active”, the Activity (HepG2 [7]) was 1.33% and the Activity (HepG2 [8]) was 20.15%. For the same compound, the viability at 0.0075 µM (HepG2 [9]) was 71.6%, the Activity (HepG2 [10]) was 26.84% and the viability at 0.015 µM (HepG2 [11]) was 65.7%. For the same compound, the Activity (HepG2 [12]) was 15.68%, the Activity (HepG2 [13]) was “Dde” and the Activity (HepG2 [14]) was “Dde”. The Activity (PC-3 [15]) was 23.22%, the Activity (PC-3 [16]) was 61.56% and the Activity (HUVEC) was “Dde”. It also gave an IC50 at 24 h [17] of 271 nM, a Stability [18] of 30.7% and a CLH [19] of 41.7 mL/min/g. For the same compound, the inhibition (Mus musculus [20]) was “Active”, the inhibition (Mus musculus [21]) was “Active” and the Activity (H22 [22]) was “Active”. For the same compound, the Activity (H22 [23]) was “Active”, the Activity [24] was “Non-Toxic” and the Activity [25] was “Non-Toxic”. The Activity [26] was “Non-Toxic”, the Activity [27] was “Non-Toxic” and the Activity [28] was “Non-Toxic”. For the same compound, the Activity [29] was “Non-Toxic”.
